One experiment deals with T1, Tankyrase-1 (Homo sapiens, UniProt O95271).
T1 construct: GST-tagged Tankyrase-1 (1023-1327 aa)
As to the kind of experiment: Tankyrase 1 autoparsylation assay (HTRF enzyme assay). The note with it: GST-tagged Tankyrase-1 (1023-1327 aa). Type of experiment: biochemical. On the procedure:
Biochemical activity testing of Tankyrase 1 and 2: Autoparsylation assay
The autoparsylation assay is run in two steps: the enzymatic reaction in which GST-tagged Tankyrase-1, resp Tankyrase-2 transferred biotinylated ADP-ribose to itself from biotinylated NAD as co-substrate and the detection reaction where a time resolved FRET between cryptate labelled anti-GST bound to the GST tag of the enzyme and Xlent® labelled-streptavidin bound the biotin-parsylation residue is analysed. The autoparsylation activity was detectable directly via the increase in HTRF signal.
The autoparsylation assay is performed as 384-well HTRF® (Cisbio, Codolet, France) assay format in Greiner low volume nb 384-well microtiter plates and is used for high throughput screen. 250 nM GST-tagged Tankyrase-1 (1023-1327 aa), respectively about 250 nM GST-tagged Tankyrase-2 (873-1166 aa) and 5 μM bio-NAD (Biolog, Life science Inst., Bremen, Germany) as co-substrate are incubated in a total volume of 5 μl (50 mM HEPES, 4 mM Mg-chloride, 0.05% Pluronic F-68, 1.4 mM DTT, 0.5% DMSO, pH 7.7) in the absence or presence of the test compound (10 dilution concentrations) for 90 min at 30° C. The reaction is stopped by the addition of 1 μl 50 mM EDTA solution. 2 μl of the detection solution (1.6 μM SA-Xlent® (Cisbio, Codolet, France), 7.4 nM Anti-GST-K® (Eu-labelled anti-GST, Cisbio, Codolet, France) in 50 mM HEPES, 800 mM KF, 0.1% BSA, 20 mM EDTA, 0.1% CHAPS, pH 7.0) are added. After 1 h incubation at room temperature the HTRF is measured with an Envision multimode reader (Perkin Elmer LAS Germany GmbH) at excitation wavelength 340 nm (laser mode) and emission wavelengths 615 nm and 665 nm. The ratio of the emission signals is determined. The full value used is the inhibitor-free reaction. The pharmacological zero value used is XAV-939 (Tocris) in a final concentration of 5 μM. The inhibitory values (IC50) are determined using either the program Symyx Assay Explorer® or Condosseo® from GeneData.
In general terms: TR-FRET usually uses a lanthanide donor and a delayed reading to cut background.

A further experiment relates to tankyrase 1/2. As to the kind of experiment: Cellular inhibition of tankyrase: increase of Axin2 level in DLD1 cells (Luminex). The class given is cell-based. The note with it: DLD1 colon carcinoma cells, 24 hours, read-out: EC50 tankyrase 1/2 (cell assay). The method, then:
Measurement of Cellular Inhibition of Tankyrase
Since Tankyrases have been described to modulate cellular level of Axin2 (Huang et al., 2009; Nature) the increase of Axin2 level is used as read-out for determination of cellular inhibition of Tankyrases in a Luminex based assay.
Cells of the colon carcinoma cell line DLD1 are plated in 96 well plates with 1.5×10^4 cells per well. Next day, cells are treated with a serial dilution of test compound in seven steps as triplicates with a final DMSO concentration of 0.3%. After 24 hours, cells are lysed in lysis buffer (20 mM Tris/HCl pH 8.0, 150 mM NaCl, 1% NP40, 10% Glycerol) and lysates are cleared by centrifugation through a 96 well filter plate (0.65 μm). Axin2 protein is isolated from cell lysates by incubation with a monoclonal anti-Axin2 antibody (R&D Systems #MAB6078) that is bound to fluorescent carboxybeads. Then, bound Axin2 is specifically detected with a polyclonal anti-Axin2 antibody (Cell Signaling #2151) and an appropriate PE-fluorescent secondary antibody. The amount of isolated Axin2 protein is determined in a Luminex^200 machine (Luminex Corporation) according to the manufacturer's instruction by counting 100 events per well. Inhibition of Tankyrase by test compounds results in higher levels of Axin2 which directly correlates with an increase of detectable fluorescence. As controls cells are treated with solvent alone (neutral control) and with a Tankyrase reference inhibitor IWR-2 (3E-06 M) which refers as control for maximum increase of Axin2. For analysis, the obtained data are normalized against the untreated solvent control and fitted for determination of the EC50 values using the Assay Explorer software (Accelrys).

The IC50 is the concentration that inhibits the measured activity by half. A lower IC50 goes with greater potency.

Where only a bound is given, the exact number is not on record here.

T1 sequence (O95271 1023-1327): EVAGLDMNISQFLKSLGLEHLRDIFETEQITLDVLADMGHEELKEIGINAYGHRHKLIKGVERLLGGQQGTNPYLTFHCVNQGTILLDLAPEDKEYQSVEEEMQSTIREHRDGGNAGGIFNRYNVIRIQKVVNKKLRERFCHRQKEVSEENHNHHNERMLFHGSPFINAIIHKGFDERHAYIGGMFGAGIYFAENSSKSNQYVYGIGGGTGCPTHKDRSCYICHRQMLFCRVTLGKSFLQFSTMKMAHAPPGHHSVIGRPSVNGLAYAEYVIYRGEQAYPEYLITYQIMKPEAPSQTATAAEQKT

The compound `CC(C)(O)c1ccc(-c2cc3c(F)cc(F)cc3c(=O)[nH]2)cc1` [Compound A33, 5,7-difluoro-3-[4-(1-hydroxy-1-methyl-ethyl)-phenyl]-2H-isoquinolin-1-one] registered an IC50 at Tankyrase-1 of less than 300 nM. For the same compound, the EC50 with tankyrase 1/2 was less than 300 nM.

`CC(C)(O)c1ccc(-c2cc3ccccc3c(=O)[nH]2)cc1` [Compound A3, 3-[4-(1-hydroxy-1-methyl-ethyl)-phenyl]-2H-isoquinolin-1-one]: the IC50 against Tankyrase-1 was less than 300 nM. For the same compound, in the experiment on tankyrase 1/2, the EC50 was less than 300 nM.

Turning to `CC(C)(O)c1ccc(-c2cc3c(F)cccc3c(=O)[nH]2)cc1` [Compound A28, 5-fluoro-3-[4-(1-hydroxy-1-methyl-ethyl)phenyl]-2H-isoquinolin-1-one], the concentration for half-maximal inhibition (IC50) at Tankyrase-1 is less than 300 nM. In addition, the EC50 in the experiment on tankyrase 1/2 was less than 300 nM.

With `CC(C)(O)c1ccc(-c2cc3cnccc3c(=O)[nH]2)cc1` [Compound A23, 3-[4-(1-hydroxy-1-methyl-ethyl)phenyl]-2H-2,6-naphthyridin-1-one], the IC50 against Tankyrase-1 is less than 300 nM. Further, the EC50 in the experiment on tankyrase 1/2 was in the range of 300 to 3000 nM.

As to `Cn1cc(-c2ccc(-c3cc4ccncc4c(=O)[nH]3)cc2)cn1` [Compound A14, 3-[4-(1-Methyl-1H-pyrazol-4-yl)-phenyl]-2H-[2,7]naphthyridin-1-one], the IC50 against Tankyrase-1 was less than 300 nM. Further, the EC50 in the experiment on tankyrase 1/2 was in the range of 300 to 3000 nM.

On to `Cn1cc(-c2ccc(-c3cc4ccc(F)cc4c(=O)[nH]3)cc2)cn1` [Compound A18, 7-fluoro-3-[4-(1-methyl-1H-pyrazol-4-yl)-phenyl]-2H-isoquinolin-1-one], for which the half-inhibitory concentration (IC50) at Tankyrase-1 was less than 300 nM. Besides, in the experiment with tankyrase 1/2, the EC50 is less than 300 nM.

`CC(C)(N)c1ccc(-c2cc3ccc(F)cc3c(=O)[nH]2)cc1` [Compound A20, 3-[4-(1-amino-1-methyl-ethyl)phenyl]-7-fluoro-2H-isoquinolin-1-one] gave an IC50 at Tankyrase-1 of less than 300 nM. Moreover, the EC50 in the experiment on tankyrase 1/2 lay in the range of 300 to 3000 nM.

Compound `Cc1ccc(-c2cc3ccc(F)cc3c(=O)[nH]2)cc1` [Compound A9, 7-fluoro-3-p-tolyl-2H-isoquinolin-1-one] gave an IC50 against Tankyrase-1 of less than 300 nM. The EC50 in the experiment with tankyrase 1/2 fell in the range of 300 to 3000 nM.

Compound `CC(C)(O)c1ccc(-c2cc3ccc(F)cc3c(=O)[nH]2)cc1` [Compound A6, 7-fluoro-3-[4-(1-hydroxy-1-methyl-ethyl)-phenyl]-2H-isoquinolin-1-one] displayed an IC50 at Tankyrase-1 of less than 300 nM. Also, the EC50 in the experiment with tankyrase 1/2 is less than 300 nM.

In the case of `COC(C)(C)c1ccc(-c2cc3ccccc3c(=O)[nH]2)cc1` [Compound A15, 3-[4-(1-methoxy-1-methyl-ethyl)-phenyl]-2H-isoquinolin-1-one], the IC50 on Tankyrase-1 is less than 300 nM. Besides, the EC50 in the experiment with tankyrase 1/2 is less than 300 nM.

`Cc1ccc(-c2cc3c(F)cccc3c(=O)[nH]2)cc1` [Compound A12, 5-fluoro-3-p-tolyl-2H-isoquinolin-1-one] returned an IC50 against Tankyrase-1 of less than 300 nM. The EC50 in the experiment on tankyrase 1/2 lay within 300 to 3000 nM.

Regarding `C=C(C)c1ccc(-c2cc3ccc(F)cc3c(=O)[nH]2)cc1` [Compound A17, 7-fluoro-3-(4-isopropenyl-phenyl)-2H-isoquinolin-1-one], the IC50 against Tankyrase-1 is less than 300 nM. In addition, the EC50 in the experiment on tankyrase 1/2 was less than 300 nM.

For `Cc1ccc(-c2cc3cccc(F)c3c(=O)[nH]2)cc1` [Compound A11, 8-fluoro-3-p-tolyl-2H-isoquinolin-1-one], the IC50 against Tankyrase-1 was less than 300 nM. Also, in the experiment with tankyrase 1/2, the EC50 is 300 to 3000 nM.

In turn, `CC(C)(O)c1ccc(-c2cc3cc(F)ccc3c(=O)[nH]2)cc1` [Compound A5, 6-fluoro-3-[4-(1-hydroxy-1-methyl-ethyl)-phenyl]-2H-isoquinolin-1-one] registered an IC50 against Tankyrase-1 of less than 300 nM. Also, the EC50 with tankyrase 1/2 was in the range of 300 to 3000 nM.

Turning to `Cc1ccc(-c2cc3cc(F)ccc3c(=O)[nH]2)cc1` [Compound A10, 6-fluoro-3-p-tolyl-2H-isoquinolin-1-one], the IC50 at Tankyrase-1 was in the range of 300 to 3000 nM. The EC50 in the experiment with tankyrase 1/2 lay in the range of 3000 to 50000 nM.

For `CC(C)(OCCO)c1ccc(-c2cc3ccc(F)cc3c(=O)[nH]2)cc1` [Compound A16, 7-fluoro-3-{4-[1-(2-hydroxy-ethoxy)-1-methyl-ethyl]-phenyl}-2H-isoquinolin-1-one], the IC50 on Tankyrase-1 was less than 300 nM. Further, the EC50 in the experiment with tankyrase 1/2 was less than 300 nM.

At Tankyrase-1, `CC(C)(O)c1ccc(-c2cc3ccncc3c(=O)[nH]2)cc1` [Compound A24, 3-[4-(1-hydroxy-1-methyl-ethyl)phenyl]-2H-2,7-naphthyridin-1-one] registered an IC50 of less than 300 nM. For the same compound, the EC50 with tankyrase 1/2 was 300 to 3000 nM.

In turn, `Cc1ccc(-c2cc3c(C)cccc3c(=O)[nH]2)cc1` [Compound A29, 5-methyl-3-(p-tolyl)-2H-isoquinolin-1-one] had an IC50 against Tankyrase-1 of less than 300 nM. Also, the EC50 in the experiment with tankyrase 1/2 was 300 to 3000 nM.

On Tankyrase-1, `CC(C)(O)c1ccc(-c2cc3cccc(F)c3c(=O)[nH]2)cc1` [Compound A27, 8-fluoro-3-[4-(1-hydroxy-1-methyl-ethyl)phenyl]-2H-isoquinolin-1-one] showed an IC50 of less than 300 nM. Further, the EC50 in the experiment with tankyrase 1/2 was less than 300 nM.
